# According to patent US11505533B2, “Metabolically stable N-acylaminooxadiazoles useful as antibacterial agents” (MICROBIOTIX, INC., priority 2017, dated 2022):
# Legend:
# CYP450, 3A4 = CYP450, 3A4 (Homo sapiens, UniProt P08684); settings: 10 µM
# CYP450, 2C19 = CYP450, 2C19 (Homo sapiens, UniProt P33261); settings: 10 µM
# CYP450, 2C19, sequence (P33261 whole entry): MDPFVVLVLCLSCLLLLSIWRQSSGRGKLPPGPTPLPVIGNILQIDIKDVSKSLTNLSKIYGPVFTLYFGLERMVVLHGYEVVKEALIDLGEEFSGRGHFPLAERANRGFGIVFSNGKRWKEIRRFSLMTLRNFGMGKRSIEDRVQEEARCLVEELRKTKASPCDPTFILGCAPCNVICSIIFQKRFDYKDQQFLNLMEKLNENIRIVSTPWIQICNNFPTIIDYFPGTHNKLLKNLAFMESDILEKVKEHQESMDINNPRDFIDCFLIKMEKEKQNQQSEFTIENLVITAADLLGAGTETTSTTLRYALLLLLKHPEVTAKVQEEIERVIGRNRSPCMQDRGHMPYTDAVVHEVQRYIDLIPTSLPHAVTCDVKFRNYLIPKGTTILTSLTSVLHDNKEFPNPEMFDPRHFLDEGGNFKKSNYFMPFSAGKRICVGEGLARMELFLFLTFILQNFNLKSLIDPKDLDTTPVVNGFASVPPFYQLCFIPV
# CYP450, 3A4, sequence (P08684 whole entry): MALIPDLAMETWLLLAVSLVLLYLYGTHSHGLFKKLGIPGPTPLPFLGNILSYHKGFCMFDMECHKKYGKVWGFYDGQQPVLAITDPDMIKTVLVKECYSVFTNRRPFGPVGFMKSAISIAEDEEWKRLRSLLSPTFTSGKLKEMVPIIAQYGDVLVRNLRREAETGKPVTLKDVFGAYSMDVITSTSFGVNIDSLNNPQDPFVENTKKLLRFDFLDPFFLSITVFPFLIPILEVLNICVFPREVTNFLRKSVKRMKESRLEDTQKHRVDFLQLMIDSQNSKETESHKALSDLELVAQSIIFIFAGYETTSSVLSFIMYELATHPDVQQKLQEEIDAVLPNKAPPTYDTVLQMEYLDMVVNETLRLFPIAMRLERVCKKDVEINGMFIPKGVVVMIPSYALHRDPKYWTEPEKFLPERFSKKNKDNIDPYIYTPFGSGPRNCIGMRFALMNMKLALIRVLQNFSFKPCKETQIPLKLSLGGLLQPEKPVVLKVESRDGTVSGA
smiles,measurement,setting,value
O=C(Nc1nnc(-c2ccc(F)cc2)o1)N1CCc2ccccc2C1 [MBX-4132],% Inhibition,"CYP450, 3A4",7%
same,% Inhibition,"CYP450, 2C19",44%
